Values of other authors, collected in patent US7511156B2, “Analogs of Salinosporamide A” (President and Fellows of Harvard College, priority 2004, dated 2009).
Residues, ends and D or L forms follow the SMILES beside them. *: point of attachment. Cbz = O=C(OCc1ccccc1)*

System: PC12 cells
Conditions: Tsubuki et al. 1993

CC(C)C[C@@H](C=O)NC(=O)[C@H](CC(C)C)NC(=O)[C@H](CC(C)C)NC(=O)OCc1ccccc1 [benzyloxycarbonyl (Z)-Leu-Leu-leucinal] (Cbz-Leu-Leu-Leu-aldehyde)
optimal concentration inducing neurite outgrowth: 30 nM
